Source: US12006530B2, “Streptococcal proteases” (priority 2016, dated 2024)
Entries after “also recorded” stand apart in the source; their conditions may differ.

Experiments:
[1] = test system: S. suis IgdE^ΔC; test: Inhibitor profile of purified recombinant IgdE^ΔC, quantitative IgG degradation analysis; type: biochemical, Streptococcus suis; details: porcine IgG
Method: The time course of cleavage (A) was monitored by continuous sampling prior to Coomassie fluor orange stained SDS-PAGE under reducing conditions followed by densitometric quantification of the cleavage product. 1.67 μM porcine IgG was incubated with 0.2 μM purified rIgdE^ac. Overnight cleavage (16 h) was set as 100% relative cleavage. For the inhibitor profile (B) initial cleavage in presence of 250 μM and 2.5 μM of each inhibitor was monitored. Initial cleavage activity of the uninhibited control was set as 100% relative activity. The DMSO control correlates to 250 μM Z-LVG-CHN2. Data are presented as mean±SEM of three experiments. Differences to the uninhibited control (*) or DMSO control (□) were analyzed by Dunnett's Multiple Comparison Test with significance set at P values of <0.05(*), <0.01(**) and <0.001(*** or □□□).
For time course analyses and inhibitor profiles the IgG degradation reaction was performed with 0.25 mg/ml porcine IgG and 2 μM purified IgdE^ΔC at 37° C. in PBS uninhibited or in the presence of 2.5 μM or […] AEBSF (Sigma), EDTA, E-64 (Sigma), lodoacetamide (Sigma), or Z-LVG-CHN2 (Bachem). DMSO (Sigma) at 0.275%, corresponding to the DMSO content in 250 µM Z-LVG-CHN2, was used as a solvent control. The reactions were continuously sampled and subjected to SDS-PAGE under reducing conditions. Protein bands were detected by staining with Coomassie Fluor™ Orange Protein Gel Stain (Invitrogen). The IgG degradation product was densitometrical quantified by imaging with LAS4000 imaging system (Fujifilm) and analyzed with Image Studio Version 3.1 (LI-COR Biosciences) software. Uninhibited over-night cleavage was set as 100% relative cleavage for the time course experiment. For the inhibitor profile the initial cleavage rate was calculated from the initial increase of cleavage product (0-25% relative cleavage) and the initial cleavage rate of the uninhibited reaction was set as 100% relative activity. Experiments were at least performed in triplicates. Statistical analyses were performed using GraphPad Prism Version 5.0.

[2] = test system: IgG degradation activity in culture supernatant of S. suis strain 10; test: Inhibitor profile of IgG degradation activity in S. suis culture supernatant, anti-IgG Western blot; type: biochemical, Streptococcus suis; details: for IgG cleavage product in presence of inhibitor: concentrated (10×) supernatant of strain 10, porcine plasma; for IgG cleaving activity in the presence of class specific protease inhibitors: protease enriched ammonium sulfate precipitates of S. suis culture supernatant, porcine plasma
Method: Concentrated (10×) culture supernatant of S. suis strain 10 was incubated with porcine plasma in presence of class specific protease inhibitors. The reaction was analyzed by anti-IgG western blot under reducing conditions.
To monitor IgG cleavage activity in concentrated and fractionated culture supernatants, samples were incubated with 1% porcine plasma in PBS for 16 h at 37° C. prior to Western blot analyses.
To identify the catalytic type of the IgG protease, the IgG degradation reaction was performed in the presence of 0.1-5 mM AEBSF (Sigma), 0.1-5 mM EDTA, 50-250 μM E-64 (Sigma), 0.1-5 mM Z-LVG-CHN2 (Bachem), 0.1-5 mM Iodoacetamide (Sigma) or 1/200 to 1/50 dilution of complete protease inhibitor cocktail (Roche).
(§1) Samples for SDS-PAGE were prepared with either reducing or non-reducing sample buffer and heated to 95° C. for 5 min. 12% SDS-PAGE was either stained with Coomassie blue (Sigma), Coomassie Fluor™ Orange Protein Gel Stain (Invitrogen) or blotted to Hybond-P PVDF membrane (GE Healthcare) for western blot analyses. Membranes were blocked with 5% dry milk powder in 0.1% PBS-Tween, followed by incubation with horse-radish peroxidase conjugated antibodies. Goat anti-pig IgG-HRP (Thermo Scientific) and goat anti-porcine IgM-HRP (Thermo Scientific) was diluted 1:25′000 and goat anti-porcine IgA-HRP (Thermo Scientific) was diluted 1:12′500. Membranes were thoroughly washed with 0.1% PBS-Tween prior to development with Amersham ECL Select Western blotting detection reagent (GE Healthcare) according to manufactures instruction and pictured by LAS4000 imaging system (Fujifilm).

[3] = test system: porcine IgG; test: IgG cleavage by IgdE, SDS-PAGE; type: biochemical, pig; details: 3.3 μM porcine IgG, 16 h at 37° C., soluble fractions of E. coli expressing the construct, reducing SDS-PAGE
Method: (A) Schematic illustration of IgdE and the different rIgdE constructs with potential active site residues substitutions and the C-terminal truncation variant. The secretion signal peptide (residues 1-37) is marked in light grey, the transglutaminase domain is boxed and the potential active site residues and substitutions are indicated. (B) 3.3 μM porcine IgG was incubated for 16 h at 37° C. with soluble fractions of E. coli cells expressing different rIgdE constructs. The reaction was analyzed SDS-PAGE under reducing conditions. […] The weak protein band of 37 kDa is a contaminant present in lysate preparation and not related to IgdE activity.
0.5 mg/ml of porcine IgG (Sigma) in PBS or of other species (human, goat, cow, horse and mouse; all Sigma) were incubated with either crude extracts of induced E. coli carrying S. suis IgdE constructs mentioned above or 10 nM purified rIgdE for 16 h at 37° C. prior subjection to SDS-PAGE under either reducing or non-reducing conditions.
as §1

Q: Which results are given for NCCc1ccc(S(=O)(=O)F)cc1 [AEBSF]?
A: IgG proteolytic activity of purified IgdE^ΔC in presence of inhibitor ([1]; 125 fold molar excess of inhibitor, 37° C., up to 18 h): inhibited the IgdEAC moderately; IgG cleavage product in presence of inhibitor ([2]; inhibitor 5 mM): no degradation product was observed; IgG cleavage product in presence of inhibitor ([2]; inhibitor 0.1-1 mM): A cleavage product of IgG can be observed; IgG cleaving activity in the presence of class specific protease inhibitors [2]: interfered moderately with IgG cleavage

Q: Which “IgG proteolytic activity of purified IgdE^ΔC in presence of inhibitor” value ([1]; purified recombinant IgdE^ΔC, inhibitor at 250 μM and 2.5 μM per FIG. 3) does the source give for CC(C)C[C@H](NC(=O)[C@H]1O[C@@H]1C(=O)O)C(=O)NCCCCN=C(N)N [E-64] here?
A: did not inhibit

Q: And the “IgG cleavage activity of S. suis culture supernatants in presence of inhibitor” value ([2]; at very high concentrations)?
A: interfered with IgG cleavage activity

Q: And the “IgG cleavage product in presence of inhibitor” value ([2]; inhibitor 50 μM)?
A: A cleavage product of IgG can be observed

Q: And the “IgG cleavage product in presence of inhibitor” value ([2]; inhibitor 250 μM)?
A: no degradation product was observed

Q: What about the “IgG cleaving activity in the presence of class specific protease inhibitors” value [2] of the same molecule?
A: appeared to inhibit IgG degrading activity

B1: rIgdE^D348A (protein)
chain: DENSHLQSPKNTNKIEVLNWEAFSKKLKDYSSDQRQFHVLKLGFENRLGTLSTREELEEFGKNNNFLVINGKVTQNIHDFPHILVMNKGDVIAHNEEDYHNQMRELRFSGNGDLHNSMEPKRIHALFKIELDSNKRQLLNAAGLGTAENSLKNINGMTIYSHGLTVDNKYYEDYSKYTHNSVKNINVTKERFIANDDLIHKLIESSEAMKQSSERDKVKAFVQYVANHTTYDWEAANKAVQNYADINYYLGSDLFAVTERQKAMCVGFSTTAARAFNMLGLPAYVVVGKNAEGVPHATARVYYDKKWHTIAGTGFITGNKHQRSAKYSEKHFSTIGEDSYDVVEAGQEPKAERNYMIIDSNYESWAMKQKTADLLLFNKEKSLVGLDYIAYVEPTYITENKKNHLLDIYKALKRKVEETKATDKDDKDDKQEGYDRVLQFVNSDIDKLSALSKITEEEFKALENSMDLARVFLGQMNAKAGKEFSEGETYQSYLKNRQKNNTNSDDDRNRNELQENQANSDEVSQNSKDASAPSVNSAQQSEELEGTPSTQETISAAPSQQTPAAPKALQAKTELEDKTETSSLGNTEMVSPSSETAQNTVDSKEESDAKLPYVEPSSKESSEAQVNTVSSPQVSSASPTSSETISTDTVTASQEKAESRVSAPQVISASQTSPETNSAEVVTTSQEVAKAPVSAPQVSSEIQTLSETAPTEVATEAPELSALESNPAPQTSLETTPTEEVTETPEPSVVESNSASPTSPETNSAEAVTTSQEMAEPSVSVPQVSSEIPTSSETAPAEVATEVSEESSSASQPSPETTPTETVTTSQEVAEAPVSAPQVSSEIPTSPETASTEVVVAKQEVADSPVSAPQVISEIPTSSETAPAEVATEVTEPSVVASSSASPTSPEANSTEVVVAKQEVADPLVSAPQTSSASLTLEVPKNEHLDEKADATTPNGVEANTHEAVSVPTSDIRVQDAGSDTVPQPYSLSATLFEEAISTVEPVGVATSSQERSAVAGKVKVPTSLERSNNSVEEEKVVDSNATIENREPEKKEILTSENVLNSLVTIWVALSTSFFMRYFSRGK
Q: With B1 as the molecule, how does the “IgG cleavage (32 kDa band) by rIgdE constructs” value (“IgG cleavage (32 kDa band)” for short) [3] read?
A: IgG cleavage (*) occurred; also recorded: somewhat reduced IgG cleaving activity

B2: rIgdE^C302S (protein)
chain: DENSHLQSPKNTNKIEVLNWEAFSKKLKDYSSDQRQFHVLKLGFENRLGTLSTREELEEFGKNNNFLVINGKVTQNIHDFPHILVMNKGDVIAHNEEDYHNQMRELRFSGNGDLHNSMEPKRIHALFKIELDSNKRQLLNAAGLGTAENSLKNINGMTIYSHGLTVDNKYYEDYSKYTHNSVKNINVTKERFIANDDLIHKLIESSEAMKQSSERDKVKAFVQYVANHTTYDWEAANKAVQNYADINYYLGSDLFAVTERQKAMSVGFSTTAARAFNMLGLPAYVVVGKNAEGVPHATARVYYDKKWHTIDGTGFITGNKHQRSAKYSEKHFSTIGEDSYDVVEAGQEPKAERNYMIIDSNYESWAMKQKTADLLLFNKEKSLVGLDYIAYVEPTYITENKKNHLLDIYKALKRKVEETKATDKDDKDDKQEGYDRVLQFVNSDIDKLSALSKITEEEFKALENSMDLARVFLGQMNAKAGKEFSEGETYQSYLKNRQKNNTNSDDDRNRNELQENQANSDEVSQNSKDASAPSVNSAQQSEELEGTPSTQETISAAPSQQTPAAPKALQAKTELEDKTETSSLGNTEMVSPSSETAQNTVDSKEESDAKLPYVEPSSKESSEAQVNTVSSPQVSSASPTSSETISTDTVTASQEKAESRVSAPQVISASQTSPETNSAEVVTTSQEVAKAPVSAPQVSSEIQTLSETAPTEVATEAPELSALESNPAPQTSLETTPTEEVTETPEPSVVESNSASPTSPETNSAEAVTTSQEMAEPSVSVPQVSSEIPTSSETAPAEVATEVSEESSSASQPSPETTPTETVTTSQEVAEAPVSAPQVSSEIPTSPETASTEVVVAKQEVADSPVSAPQVISEIPTSSETAPAEVATEVTEPSVVASSSASPTSPEANSTEVVVAKQEVADPLVSAPQTSSASLTLEVPKNEHLDEKADATTPNGVEANTHEAVSVPTSDIRVQDAGSDTVPQPYSLSATLFEEAISTVEPVGVATSSQERSAVAGKVKVPTSLERSNNSVEEEKVVDSNATIENREPEKKEILTSENVLNSLVTIWVALSTSFFMRYFSRGK
Q: With B2 as the molecule, how does the “IgG cleavage (32 kDa band)” value [3] read?
A: neither rIgdE^C302S nor rIgdE^H333A exhibited IgG cleaving activity

B3: rIgdE^H333A (protein)
chain: DENSHLQSPKNTNKIEVLNWEAFSKKLKDYSSDQRQFHVLKLGFENRLGTLSTREELEEFGKNNNFLVINGKVTQNIHDFPHILVMNKGDVIAHNEEDYHNQMRELRFSGNGDLHNSMEPKRIHALFKIELDSNKRQLLNAAGLGTAENSLKNINGMTIYSHGLTVDNKYYEDYSKYTHNSVKNINVTKERFIANDDLIHKLIESSEAMKQSSERDKVKAFVQYVANHTTYDWEAANKAVQNYADINYYLGSDLFAVTERQKAMCVGFSTTAARAFNMLGLPAYVVVGKNAEGVPAATARVYYDKKWHTIDGTGFITGNKHQRSAKYSEKHFSTIGEDSYDVVEAGQEPKAERNYMIIDSNYESWAMKQKTADLLLFNKEKSLVGLDYIAYVEPTYITENKKNHLLDIYKALKRKVEETKATDKDDKDDKQEGYDRVLQFVNSDIDKLSALSKITEEEFKALENSMDLARVFLGQMNAKAGKEFSEGETYQSYLKNRQKNNTNSDDDRNRNELQENQANSDEVSQNSKDASAPSVNSAQQSEELEGTPSTQETISAAPSQQTPAAPKALQAKTELEDKTETSSLGNTEMVSPSSETAQNTVDSKEESDAKLPYVEPSSKESSEAQVNTVSSPQVSSASPTSSETISTDTVTASQEKAESRVSAPQVISASQTSPETNSAEVVTTSQEVAKAPVSAPQVSSEIQTLSETAPTEVATEAPELSALESNPAPQTSLETTPTEEVTETPEPSVVESNSASPTSPETNSAEAVTTSQEMAEPSVSVPQVSSEIPTSSETAPAEVATEVSEESSSASQPSPETTPTETVTTSQEVAEAPVSAPQVSSEIPTSPETASTEVVVAKQEVADSPVSAPQVISEIPTSSETAPAEVATEVTEPSVVASSSASPTSPEANSTEVVVAKQEVADPLVSAPQTSSASLTLEVPKNEHLDEKADATTPNGVEANTHEAVSVPTSDIRVQDAGSDTVPQPYSLSATLFEEAISTVEPVGVATSSQERSAVAGKVKVPTSLERSNNSVEEEKVVDSNATIENREPEKKEILTSENVLNSLVTIWVALSTSFFMRYFSRGK
Q: With B3 as the molecule, how does the “IgG cleavage (32 kDa band)” value [3] read?
A: neither rIgdE^C302S nor rIgdE^H333A exhibited IgG cleaving activity
